Source: patent US10660967B2, “Curcumin conjugates and methods of use thereof” (priority 2016, dated 2020)
Where two headings read alike, the source gives them in different places.

Assays:
[1] = system: carrageenan induced paw edema; assay: Anti-inflammatory activity: acute carrageenan induced paw edema in rats; format: in vivo, Wister rats; conditions: at 4 h effect; 10 mg kg^−1 indomethacin mol equivalent
Method in brief: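 Wistar rats (120–150 g, n=6/group) received subplantar 1% carrageenan in the right hind paw, and DMSO-vehicle animals served as controls. Results are given as % inhibition of edema thickness versus control.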

[2] = system: gastric mucosa; assay: Ulcerogenic liability (ulcer index); format: in vivo, albino mice; conditions: orally, three successive days, 10 mg/kg indomethacin mol equivalent; for Number of animals with ulcer: 6 animals per group; for Ulcer index: sum of the three values
Method in brief: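 Albino mice were fasted 18 h before dosing, and controls got saline with a few drops of Tween 80. Gastric mucosa was checked under a 10× lens for lesions and erosions. The ulcer index combines percentage incidence divided by 10, mean ulcers per stomach and mean severity.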

[3] = system: HCT116 (colon) carcinoma cell line; assay: Anti-tumor properties, MTT; format: cell-based; conditions: Homo sapiens, HCT-116
Method in brief: (§1)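 Cells seeded at 10×10^3 per well for 24 h, then exposed to compound in serum-free medium (final up to 100 μM, 0.5% DMSO vehicle) for 72 h in triplicate. Viability by MTT reduction (4 h, SDS solubilised), absorbance 595 nm/ref 620 nm; IC50 from survival curves.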

[4] = system: HepG2 (hepatocellular) carcinoma cell line; assay: Anti-tumor properties, MTT; format: cell-based; conditions: Homo sapiens
Method in brief: as §1

[5] = system: MCF7 (breast) carcinoma cell line; assay: Anti-tumor properties, MTT; format: cell-based; conditions: Homo sapiens
Method in brief: as §1

[6] = system: Staphylococcus aureus ATCC25923; assay: Antimicrobial MIC, agar dilution
[7] = system: Streptococcus pyogenes ATCC19615; assay: Antimicrobial MIC, agar dilution
[8] = system: Pseudomonas aeruginosa ATCC27853; assay: Antimicrobial MIC, agar dilution
[9] = system: Candida albicans (local isolate); assay: Antimicrobial MIC, agar dilution; conditions: Candida albicans, read-out: Minimum inhibitory concentration (MIC)
[10] = ATCC25923, 18 h, read-out: Minimum inhibitory concentration (MIC)
[11] = ATCC25923, read-out: Minimum inhibitory concentration (MIC)
[12] = ATCC19615, 18 h, read-out: Minimum inhibitory concentration (MIC)
[13] = ATCC19615, read-out: Minimum inhibitory concentration (MIC)
[14] = ATCC27853, 18 h, read-out: Minimum inhibitory concentration (MIC)
[15] = ATCC27853, read-out: Minimum inhibitory concentration (MIC)

SMILES	Potency (% inhibition of edema relative to that of indomethacin reference standard) [1]	% Incidence of ulcer divided by 10 [2]	Average of ulcer number [2]	Average severity of ulcer [2]	Number of animals with ulcer [2]	Ulcer index [2]	activity at 100 µM ([3]; HCT116, 100 μM, 72 h, read-out: Percentage growth of tumor cell lines treated with the tested compounds (±SD))	activity at 100 µM ([4]; HepG2, 100 μM, 72 h, read-out: Percentage growth of tumor cell lines treated with the tested compounds (±SD))	activity at 100 µM ([5]; MCF7, 100 μM, 72 h, read-out: Percentage growth of tumor cell lines treated with the tested compounds (±SD))	MIC [6, 10]	MIC [6, 11]	MIC [7, 12]	MIC [7, 13]	MIC [8, 14]	MIC [8, 15]	MIC ([9]; 18 h)	MIC [9]	IC50 ([3]; read-out: IC50 (μM) HCT116 (colon))	IC50 ([4]; HepG2, read-out: IC50 (μM) HepG2 (liver))	IC50 ([5]; MCF7, read-out: IC50 (μM) MCF7 (breast))
COc1cc(/C=C/C(=O)CC(=O)/C=C/c2ccc(OC(=O)C(C)NC(=O)OCc3ccccc3)c(OC)c2)ccc1OC(=O)C(C)NC(=O)OCc1ccccc1 (racemic) [Cbz-DL-Ala-Cur, ((1E,6E)-3,5-dioxohepta-1,6-diene-1,7-diyl)bis(2-methoxy-4,1-phenylene) bis(2-(((benzyloxy)carbonyl)amino)propanoate)]	115	3.33	0.67	0.67	2/6	4.67	92 ± 2.1%	82.9 ± 4.1%	62.7 ± 4.7%	0.5 µg/mL	0.642 µM	0.125 µg/mL	0.161 µM	0.25 µg/mL	0.321 µM	0.5 µg/mL	0.642 µM			
COc1cc(/C=C/C(=O)CC(=O)/C=C/c2ccc(OC(=O)[C@H](N)CCSC)c(OC)c2)ccc1OC(=O)[C@H](N)CCSC.Cl.Cl [HCl-D-Met-Cur, (2R,2′R)-1,1′-((((1E,6E)-3,5-dioxohepta-1,6-diene-1,7-diyl)bis(2-methoxy-4,1-phenylene))bis(oxy))bis(4-(methylthio)-1-oxobutan-2-aminium) chloride]	113	0	0	0	0/6	0				0.125 µg/mL	0.178 µM	0.25 µg/mL	0.355 µM	1 µg/mL	1.42 µM	1 µg/mL	1.42 µM	46.7 µM	43.6 µM	10.2 µM
